Data taken from patent publication US7713706B2, “Method of fixing low-molecular compound to solid-phase support” (RIKEN, priority 2003, dated 2010).

What was measured:
[1] = target: streptavidin-Alexa Fluor 633 conjugate (Streptomyces avidinii, UniProt P22629); assay: Detection of low molecule-protein bonding on low molecule-fixed slide (fluorescent slide scanner, 635 nm); assay type: binding; conditions: light of 635 nm; 3.7 μg/mL streptavidin-Alexa Fluor 633 conjugate; room temperature 1 hour; compound fixed on photophilic atomic group-introduced slide
streptavidin-Alexa Fluor 633 conjugate, sequence (P22629 25-183): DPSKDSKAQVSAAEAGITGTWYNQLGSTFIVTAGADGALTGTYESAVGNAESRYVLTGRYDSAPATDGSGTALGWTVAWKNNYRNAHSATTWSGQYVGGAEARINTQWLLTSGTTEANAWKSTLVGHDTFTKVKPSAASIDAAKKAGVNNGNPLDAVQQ
Protocol: (§1) On the photophilic atomic group-introduced slide, 0.2 μL of each of solutions of low-molecular compounds (biotin, rhodamine B, digoxin) in DMSO, which had been prepared in concentrations of 100, 10, 1, 0.1 and 0.01 mM, was spotted. The slide was dried in an incubator at 35° C. for 3 hours and further dried with a vacuum pump for 20 hours. […] The slide was then washed while shaking by immersing in ethanol, DMF, THF, ethanol and deionized water in this order (for 1 hour each). Thus, a slide on which low molecules were fixed was produced.
(§2) Onto the low molecule-fixed slide, a protein solution (162 μg/mL anti-digoxin monoclonal antibody clone DI-22-FITC conjugate, 3.7 μg/mL streptavidin-Alexa Fluor 633 conjugate, 1% (w/v) skimmed milk, 77 mM NaCl, 0.05% (w/v) TWEEN™ 20 (polysorbate 20), 50 mM Tris-HCl, pH 7.5) was added at a rate of […], and then treated at room temperature for 1 hour. The slide was washed while shaking three times with a wash buffer (77 mM NaCl, 0.05% (w/v) TWEEN™ 20 (polysorbate 20), 50 mM Tris-HCl, pH 7.5), rinsed with deionized water, and dehydrated in a dehydration centrifuge (400×g) for 1 minute, The slide was exited with light of 488, 532 and 635 nm, respectively, and the emitted fluorescent light was observed on a fluorescent slide scanner. […]

[2] = tested on: anti-digoxin monoclonal antibody clone DI-22-FITC conjugate; assay: Detection of low molecule-protein bonding on low molecule-fixed slide (fluorescent slide scanner, 488 nm); assay type: binding; conditions: light of 488 nm; 162 μg/mL anti-digoxin monoclonal antibody clone DI-22-FITC conjugate; room temperature 1 hour; compound fixed on photophilic atomic group-introduced slide
Protocol: as §1, §2

Compound | binding of fixed low-molecular compound to protein (fluorescence detected at spotted areas) [1] | binding of fixed low-molecular compound to protein (fluorescence detected at spotted areas) [2]
O=C(O)CCCC[C@@H]1SC[C@@H]2NC(=O)N[C@@H]21 [biotin] | bound to the protein | –
C[C@H]1O[C@@H](O[C@H]2C(O)C[C@H](OC3CC[C@@]4(C)[C@H](CC[C@@H]5[C@@H]4C[C@@H](O)[C@]4(C)[C@@H](C6=CC(=O)OC6)CC[C@]54O)C3)O[C@@H]2C)C[C@H](O)C1O[C@H]1C[C@H](O)[C@H](O)[C@@H](C)O1 (some centres unmarked) [digoxin] | – | bound to the protein
